Results on two compounds are retold here after publication PMC9135895, “The effects of two gold-N-heterocyclic carbene (NHC) complexes in ovarian cancer cells: a redox proteomic study” (Cancer Chemotherapy and Pharmacology, 2022).

Test [1] concerns the target T1, Glyceraldehyde-3-phosphate dehydrogenase (GAPDH) (Homo sapiens, UniProt P04406).
T1 construct: endogenous GAPDH in A2780 cell extract
Kind of test: GAPDH activity ([…] nm) in A2780 crude cell extract after […] min pre-incubation. The class given is biochemical.

Test [2] concerns the target T1, Glyceraldehyde-3-phosphate dehydrogenase (GAPDH). Kind of test: GAPDH activity ([…] nm) in A2780 crude cell extract after […] min pre-incubation; no adduct seen by ESI-MS with rabbit GAPDH. The class given is biochemical.

T1 sequence (P04406 2-335): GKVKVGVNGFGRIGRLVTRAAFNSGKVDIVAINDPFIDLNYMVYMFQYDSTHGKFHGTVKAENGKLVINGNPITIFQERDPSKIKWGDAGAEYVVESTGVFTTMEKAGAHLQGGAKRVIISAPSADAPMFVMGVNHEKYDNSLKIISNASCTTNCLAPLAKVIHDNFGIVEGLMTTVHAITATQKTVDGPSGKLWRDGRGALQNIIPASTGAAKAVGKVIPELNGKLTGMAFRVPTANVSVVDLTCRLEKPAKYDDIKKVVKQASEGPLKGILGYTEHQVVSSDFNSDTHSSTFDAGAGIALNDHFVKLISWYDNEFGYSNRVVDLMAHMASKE

The EC50 is the midpoint of the concentration-response curve. Read a high EC50 as lower potency in that assay. For `CCCCn1cc[n+](C)[c]1[Au-][Cl]` [compound 1, chlorido (1-butyl-3-methyl-imidazole-2-ylidene) gold(I)], the EC50 in test [1] came out at 2.86 ± 0.3 µM.

In test [2], `CCCCn1cc[n+](C)[c]1[AuH][c]1n(CCCC)cc[n+]1C` [compound 2, bis(1-butyl-3-methyl-imidazole-2-ylidene) gold(I)] gave an EC50 of 7.13 ± 0.1 µM.
